Assay results reported in patent US20250206761A1, “HALOINDOLE MACROCYCLIC COMPOUNDS FOR THE TREATMENT OF CANCER” (Hoffmann-La Roche Inc., priority 2022, published 2025).

Columns and labels:
[1] = test system: AGS (ATCC-CRL-1739) cells; assay: Cell viability assay, G12D (AGS); format: cell-based, human; details: KRAS cell viability, 72 hrs, Cell Counting Kit-8
Procedure: (§1) The purpose of this cellular assay was to determine the effects of test compounds on the proliferation of human cancer cell lines NCI-H358 (ATCC-CRL5807) cells, AGS (ATCC-CRL-1739) cells, SW620 (ATCC-CCL-227) over a 3-day treatment period by quantifying the amount of NADPH present at endpoint using Cell Counting Kit-8.
(§2) Cells were seeded at 5,000 cells/well (NCI-H358), 2,000 cells/well (AGS) 2,000 cells/well (SW620) in 96-well assay plates (Corning-3699) and incubated overnight. On the day of the assay, diluted compounds were then added in a final concentration of 0.5% DMSO. After 72 hrs incubation, a tenth of the volume of cell counting kit 8 (Dnjindo-CK04) was added into each well. Read the signal (OD450 minus OD650) using EnVision after 2 hrs incubation. IC50 was determined by fitting a 4-parameter sigmoidal concentration response model.

[2] = test system: SW620 (ATCC-CCL-227); assay: Cell viability assay, G12V (SW620); format: cell-based, human; details: KRAS cell viability, SW620, 72 hrs, Cell Counting Kit-8
Procedure: as §1, §2

[3] = target: KRAS G12C-BRAF complex (Homo sapiens (Human), UniProt P01116+P62937, G12C); assay: KRAS-BRAF with CYPA (500 nM) interaction assay (TR-FRET), G12C; format: biochemical
KRAS G12C-BRAF complex, sequence (P01116-2 other isoform, or with tags, fused parts or gaps G12C): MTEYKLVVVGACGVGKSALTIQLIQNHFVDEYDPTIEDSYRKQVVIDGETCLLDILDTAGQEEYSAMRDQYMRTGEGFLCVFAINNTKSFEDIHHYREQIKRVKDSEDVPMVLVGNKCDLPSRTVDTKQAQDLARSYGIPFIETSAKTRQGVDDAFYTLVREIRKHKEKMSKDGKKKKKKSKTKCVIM
KRAS G12C-BRAF complex, sequence (P62937 whole entry): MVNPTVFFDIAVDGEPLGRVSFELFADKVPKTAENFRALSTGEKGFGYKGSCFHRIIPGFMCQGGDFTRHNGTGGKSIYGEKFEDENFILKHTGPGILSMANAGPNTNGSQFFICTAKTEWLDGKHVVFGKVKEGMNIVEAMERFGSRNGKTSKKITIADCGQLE
Procedure: (§3) In this example, TR-FRET was also used to measure the compound or compound-CYPA dependent disruption of the KRAS G12C-BRAF complex. This protocol was also used to measure disruption of KRAS G12D or KRAS G12V binding to BRAF by a compound of the invention, respectively. In assay buffer containing 25 mM HEPES PH=7.4 (4-(2-hydroxyethyl)-1-piperazineethanesulfonic acid, Thermo, 15630080), 0.002% Tween20, 0.1% BSA, 100 mM NaCl, 5 mM MgCl2, 10 μM GMPPNP (Guanosine 5′-[β,γ-imido]triphosphate trisodium salt hydrate, Sigma, G0635), […] 384-well assay plate at final concentrations of 50 nM, 6.25 nM and 1 nM, respectively. Compound was present in plate wells as a 16-point 3-fold dilution series starting at a final concentration of 10 μM and incubated for 3 hours. A mixture of MAb Anti-6His-XL665 (Cisbio, 61HISXLB) and Mab anti-GST-TB cryptate (Cisbio, 61GSTTLB) was then added at a final concentration of 6.67 nM and 0.21 nM, respectively, and the plate was incubated for an additional 1.5 hours. TR-FRET signal was read on a PHERstar FSX microplate reader (Ex320 nm, Em 665/615 nm). Compounds that facilitate disruption of the KRAS-BRAF complex were identified as those eliciting a decrease in the TR-FRET ratio relative to DMSO control wells.

[4] = target: KRAS G12D binding to BRAF (Homo sapiens (Human), UniProt P01116+P62937, G12D); assay: KRAS-BRAF with CYPA (500 nM) interaction assay (TR-FRET), G12D; format: biochemical
KRAS G12D binding to BRAF, sequence (P01116-2 other isoform, or with tags, fused parts or gaps G12D): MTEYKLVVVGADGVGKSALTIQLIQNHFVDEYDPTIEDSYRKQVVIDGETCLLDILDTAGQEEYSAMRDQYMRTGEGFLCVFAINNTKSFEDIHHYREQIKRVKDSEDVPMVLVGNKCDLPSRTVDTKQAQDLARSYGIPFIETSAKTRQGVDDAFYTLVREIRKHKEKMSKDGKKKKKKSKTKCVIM
KRAS G12D binding to BRAF, sequence (P62937 whole entry): as the sequence (P62937 whole entry) above
Procedure: as §3

[5] = target: KRAS G12V binding to BRAF (Homo sapiens (Human), UniProt P01116+P62937, G12V); assay: KRAS-BRAF with CYPA (500 nM) interaction assay (TR-FRET), G12V; format: biochemical
KRAS G12V binding to BRAF, sequence (P01116-2 other isoform, or with tags, fused parts or gaps G12V): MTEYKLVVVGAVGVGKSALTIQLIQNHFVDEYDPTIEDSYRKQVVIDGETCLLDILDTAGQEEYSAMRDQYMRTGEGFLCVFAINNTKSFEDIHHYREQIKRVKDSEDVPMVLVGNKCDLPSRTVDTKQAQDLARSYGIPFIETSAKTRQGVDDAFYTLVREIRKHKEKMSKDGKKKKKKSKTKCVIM
KRAS G12V binding to BRAF, sequence (P62937 whole entry): as the sequence (P62937 whole entry) above
Procedure: In this example, TR-FRET was also used to measure the compound or compound-CYPA dependent disruption of the KRAS G12C-BRAF complex. This protocol was also used to measure disruption of KRAS G12D or KRAS G12V binding to BRAF by a compound of the invention, respectively. In assay buffer containing 25 mM HEPES PH=7.4 (4-(2-hydroxyethyl)-1-piperazineethanesulfonic acid, Thermo, 15630080), 0.002% Tween20, 0.1% BSA, 100 mM NaCl, 5 mM MgCl2, 10 μM GMPPNP (Guanosine 5′-[β,γ-imido]triphosphate trisodium salt hydrate, Sigma, G0635), […], GMPPNP loaded 6His-KRAS proteins, and […], 6.25 nM and 1 nM, respectively. Compound was present in plate wells as a 16-point 3-fold dilution series starting at a final concentration of 10 μM and incubated for 3 hours. A mixture of MAb Anti-6His-XL665 (Cisbio, 61HISXLB) and Mab anti-GST-TB cryptate (Cisbio, 61GSTTLB) was then added at a final concentration of 6.67 nM and 0.21 nM, respectively, and the plate was incubated for an additional 1.5 hours. TR-FRET signal was read on a PHERstar FSX microplate reader (Ex320 nm, Em 665/615 nm). Compounds that facilitate disruption of the KRAS-BRAF complex were identified as those eliciting a decrease in the TR-FRET ratio relative to DMSO control wells.

[6] = test system: phosphorylation of ERK, KRAS G12C in NCJ-H358 cells; assay: pERK inhibition assay, KRAS G12C; format: cell-based, human; details: Homo sapiens, 4 hours
Procedure: (§4) This assay is to measure the ability of test compounds in inhibiting the phosphorylation of ERK, the downstream signaling of KRAS G12C in NCJ-H358 cells, KRAS G12D in AGS cells, and KRAS G12V in SW620. NCJ-H358 (ATCC-CRL5807) cells, AGS (ATCC-CRL-1739) cells, SW620 (ATCC-CCL-227) cells were all grown and maintained using RPMI-1640 medium (Thermo Fisher Scientific) with 10% fetal bovine serum and 1% penicillin/streptomycin. On the day prior to compound addition, cells were plated in tissue culture-treated 96 well plates (Corning-3699) at a density of 30,000 cell/well, 20,000 cell/well, 30,000 cell/well for NCJ-H358, AGS and SW620 respectively, and allowed for attachment overnight. Diluted compounds were then added in a final concentration of 0.5% DMSO. After 4 hours of incubation, the medium was removed, 100 μL of 4% formaldehyde was added, and the assay plates were incubated at room temperature for 20 minutes. The plates were then washed once with phosphate buffered saline (PBS), and permeabilized with 100 μL of chilled methanol for 10 minutes. Non-specific antibody binding to the plates was blocked using 50 μL 1×BSA blocking buffer (Thermo-37520, 10-fold dilution by Phosphate-Buffered Saline Tween (PBST) for at least 1 hour at room temperature.
(§5) The amount of phosphor-ERK was determined using an antibody specific for phosphorylated form of ERK. Primary antibody (pERK, CST-4370, Cell Signaling Technology) was diluted 1:300 in blocking buffer, with 50 μL aliquoted to each well, and incubated overnight at 4′° C. Cells was washed five times for 5 minutes with PBST. Secondary antibody ([…] anti-rabbit IgG, CST-7074, Cell Signaling Technology) was diluted 1:1000 in blocking buffer, and 50 μL was added to each well and incubated 1-2 hrs at room temperature. Cells was washed 5 times for 5 minutes with PBST, 100 μL TMB ELISA substrate (abcam-ab171523) were added and gently shake for 20 minutes. 50 μL stop solution (abcam-ab171529) were added, and then read the signal (OD450) by EnVision.
(§6) IC50 was determined by fitting a 4-parameter sigmoidal concentration response model.

[7] = test system: phosphorylation of ERK, KRAS G12V in SW620; assay: pERK inhibition assay, KRAS G12V; format: cell-based, human; details: Homo sapiens, SW-620, SW620, 4 hours
Procedure: as §4, §5, §6

Compound: CO[C@@H](C)c1ncc(N2CCN(C)CC2)cc1-c1c2c3cc(c(F)cc3n1CC(F)(F)F)-c1csc(n1)C[C@H](NC(=O)[C@H](C(C)C)N1CCC3(CN(C(=O)[C@H](F)Cl)C3)C1=O)C(=O)N1CCC[C@H](N1)C(=O)OCC(C)(C)C2 (atropisomer, axis not shown) [Example 25, (2S)-2-[2-[(2R)-2-chloro-2-fluoro-acetyl]-5-oxo-2,6-diazaspiro[3.4]octan-6-yl]-N-[(7S,13S)-24-fluoro-20-[2-[(1S)-1-methoxyethyl]-5-(4-methylpiperazin-1-yl)-3-pyridyl]-17,17-dimethyl-8,14-dioxo-21-(2,2,2-trifluoroethyl)-15-oxa-4-thia-9,21,27,28-tetrazapentacyclo[17.5.2.1^2,5.1^9,13.0^22,26]octacosa-1(25),2,5(28),19,22(26),23-hexaen-7-yl]-3-methyl-butanamide]
- IC50 ([1]; Homo sapiens): 1650 nM
- IC50 ([2]; Homo sapiens, SW-620): 89 nM
- IC50 [3]: 98 nM
- IC50 [4]: 6060 nM
- IC50 [5]: 3540 nM

Compound: CCn1c(-c2cc(N3CCN(C)CC3)cnc2[C@H](C)OC)c2c3cc(c(F)cc31)-c1csc(n1)C[C@H](NC(=O)[C@H](COC1CN(C(=O)[C@H](F)Cl)C1)C(C)C)C(=O)N1CCC[C@H](N1)C(=O)OCC(C)(C)C2 (atropisomer, axis not shown; (M)) [Example 41, (2S)-2-[[1-[(2R)-2-chloro-2-fluoro-acetyl]azetidin-3-yl]oxymethyl]-N-[(7S,13S)-21-ethyl-24-fluoro-(20M)-20-[2-[(1S)-1-methoxyethyl]-5-(4-methylpiperazin-1-yl)-3-pyridyl]-17,17-dimethyl-8,14-dioxo-15-oxa-4-thia-9,21,27,28-tetrazapentacyclo[17.5.2.1^2,5.1^9,13.0^22,26]octacosa-1(25),2,5(28),19,22(26),23-hexaen-7-yl]-3-methyl-butanamide]
- IC50 [3]: 88 nM
- IC50 [4]: > 10000 nM
- IC50 [5]: 1170 nM
- IC50 [6]: 107 nM
- IC50 [7]: 199 nM

Compound: CCn1c(-c2cc(N3CCOCC3)cnc2[C@H](C)OC)c2c3cc(c(F)cc31)-c1csc(n1)C[C@H](NC(=O)[C@H](C(C)C)N1CCC3(CCN(C(=O)[C@H](F)Cl)CC3)C1=O)C(=O)N1CCC[C@H](N1)C(=O)OCC(C)(C)C2 (atropisomer, axis not shown; (M)) [Example 50, (2S)-2-[8-[(2R)-2-chloro-2-fluoro-acetyl]-1-oxo-2,8-diazaspiro[4.5]decan-2-yl]-N-[(7S,13S)-21-ethyl-24-fluoro-(20M)-20-[2-[(1S)-1-methoxyethyl]-5-morpholino-3-pyridyl]-17,17-dimethyl-8,14-dioxo-15-oxa-4-thia-9,21,27,28-tetrazapentacyclo[17.5.2.1^2,5.1^9,13.0^22,26]octacosa-1(25),2,5(28),19,22(26),23-hexaen-7-yl]-3-methyl-butanamide]
- IC50 [3]: 124 nM
- IC50 [4]: > 10000 nM
- IC50 [5]: > 10000 nM
- IC50 [6]: 6 nM
- IC50 [7]: 6 nM

Compound: CCn1c(-c2cc(N3CCN(C)CC3)cnc2[C@H](C)OC)c2c3cc(c(F)cc31)-c1csc(n1)C[C@H](NC(=O)[C@H](C(C)C)N1CCC[C@]3(CCN(C(=O)[C@@H](F)Cl)C3)C1=O)C(=O)N1CCC[C@H](N1)C(=O)OCC(C)(C)C2 [Example 23, (2S)-2-[(5S)-2-[(2S)-2-chloro-2-fluoro-acetyl]-6-oxo-2,7-diazaspiro[4.5]decan-7-yl]-N-[(7S,13S)-21-ethyl-24-fluoro-(20M)-20-[2-[(1S)-1-methoxyethyl]-5-(4-methylpiperazin-1-yl)-3-pyridyl]-17,17-dimethyl-8,14-dioxo-15-oxa-4-thia-9,21,27,28-tetrazapentacyclo[17.5.2.1^2,5.1^9,13.0^22,26]octacosa-1(25),2,5(28),19,22(26),23-hexaen-7-yl]-3-methyl-butanamide]
- IC50 [1]: 322 nM
- IC50 [2]: 90 nM
- IC50 [3]: 64 nM
- IC50 [4]: 2080 nM
- IC50 [5]: 5390 nM

Compound: CCn1c(-c2cc(N3CCN(CC(F)(F)F)CC3)cnc2[C@H](C)OC)c2c3cc(c(F)cc31)-c1csc(n1)C[C@H](NC(=O)[C@H](C(C)C)N1CCCC3(CCN(C(=O)[C@H](F)Cl)CC3)C1=O)C(=O)N1CCC[C@H](N1)C(=O)OCC(C)(C)C2 (atropisomer, axis not shown; (M)) [Example 48, (2S)-2-[9-[(2R)-2-chloro-2-fluoro-acetyl]-1-oxo-2,9-diazaspiro[5.5]undecan-2-yl]-N-[(7S,13S)-21-ethyl-24-fluoro-(20M)-20-[2-[(1S)-1-methoxyethyl]-5-[4-(2,2,2-trifluoroethyl)piperazin-1-yl]-3-pyridyl]-17,17-dimethyl-8,14-dioxo-15-oxa-4-thia-9,21,27,28-tetrazapentacyclo[17.5.2.1^2,5.1^9,13.0^22,26]octacosa-1(25),2,5(28),19,22(26),23-hexaen-7-yl]-3-methyl-butanamide]
- IC50 [3]: 47 nM
- IC50 [4]: 1030 nM
- IC50 [5]: > 10000 nM
- IC50 [6]: 2 nM
- IC50 [7]: 12 nM
